Experimental data published in patent US5015661A, “Chromanes and their pharmaceutical compositions and methods” (Hoffmann-La Roche Inc., priority 1989, dated 1991).

Tested on: arachidonic acid-induced mouse ear edema
Test: Mouse ear edema test (in vivo), arachidonic acid-induced
Conditions: 1 mg topical, CD-1 male mice, 0.5 mg arachidonic acid 0.5 or 4 hours later, ear biopsy weight after 1 hour, read-out: EAR EDEMA % INHIB. 1 mg
Procedure: MOUSE EAR EDEMA TEST (IN VIVO)
In this animal model system, the application of arachidonic acid to the ear results in the biosynthesis of the metabolic products […]-6,8,11,14-eicosatetraenoic acid (5-HETE), leukotriene B4 (LTB4), leukotriene C4 (LTC4), […]-5,8,10,14-eicosatetraenoic acid (12-HETE), and prostaglandin E2 (PGE2) at the site of application, followed by the influx of neutrophils into the site and the rapid development of edema within 30 to 60 minutes (See, for instance, Young, Wagner and Spries, "Tachyphylaxis in 12-O-Tetradecanoylphorbol Acetate And Arachidonic Acid-Induced Ear Edma," J. Invest. Dermatol. 80:48 (1983) and Hames, Opas and Bonney, "Arachidonic Acid MetaboIites in Mouse Ear Edma" Advances in Inflammation Research. 11:57 (1986).
CD-1 male mice weighing 15 to 25 g were employed, and they were designated as follows: (1) Control Group, in which no arachidonic acid or test compound was to be applied, (2) Arachidonic Acid-Treated Group, in which no test compound was to be applied, and (3) Treated Group, in which the test compound was to be applied first, followed by the application of arachidonic acid.
In the case of the Group (3) animals, the test compound, dissolved in acetone, was applied to the dorsal surface of the right ear of the mouse with a 25-microliter pipette or, with the dose of the test compound being varied. After 0.5 hours in some cases and 4 hours in others, the arachidonic acid was topically applied in the same manner as above to the pretreated ear areas. In each case of arachidonic acid application, an amount of 0.5 mg dissolved in 25 microliters of acetone was used. After 1 hour, the mice were sacrificed by carbon dioxide inhalation. A 6mm-diameter standard biopsy punch was used to obtain a uniform tissue sample from the ear of each mouse so treated, and the tissue samples were weighted to the nearest 0.1 mg. The percent inhibition of ear edema formation was calculated as follows: [formula]

In the case of `Cc1c(C)c2c(c(C)c1O)CCC(C)(C#Cc1ccccc1)O2` (racemic) [Example 1, rac-3,4-Dihydro-2,5,7,8-tetramethyl-2-(phenylethynyl)-2H-1-benzopyran-6-ol], the inhibition in vivo at 1 mg is reported as 45%.

Biological target: superoxide-dependent, iron-promoted lipid peroxidation of native rat heart cardiac lipid liposomes
Test: Lipid peroxidation inhibition (in vitro testing of antiperoxidative agents, ANTI-OX), hypoxanthine-xanthine oxidase-Fe3+.ADP, rat cardiac liposomes, MDA equivalents
Type: biochemical
Conditions: 60 min, 37° C., screened at 1.0 μM, IC50 determined if inhibition ≥ 50%, read-out: ANTI-OX IC-50
Procedure: The test system employs hypoxanthine-xanthine oxidase (XO)-Fe^3+. ADP as the free radical generator and purified, native rat-heart membrane phosphoglyceride in Hepes-KCl buffer, pH 7.4, as the substrate. Inhibition of superoxide-dependent, iron-promoted lipid peroxidation in the linear reaction phase (after 1 hour of reaction) is measured as the net formation of thiobarbituric acid (TBA)-reactive material. In this system, the TBA-reactive material, isolated by HPLC, is exclusively (>95%) malondialdehyde (MDA), a fragmentation end-product arising from fatty acyl hydroperoxides and cyclic endoperoxides. […]
a) Isolation and purification of Rat Cardiac Lipid
Conscious male Sprague-Dawley rats (~275g) maintained on a normal rodent diet were decapitated. The hearts were rapidly removed and perfused via the aorta with ice-cold 10 mM Hepes buffer, pH 7.4. The aorta and atria were removed, and the ventricular tissue was blotted and weighed (wet weight). The hearts were minced on ice with scissors and finally homogenized (100 mg tissue/ml ice-cold buffer) for 15 seconds (3×5 seconds) with a Tekmar Tissumizer at "maximal" setting. The homogenate was filtered through 4-ply cheesecloth, and homogenate lipids were extracted and purified by a modified Bligh-Dyer procedure (M.D. Marshall and M. Kates, Biochem. Biophys. Acta 260, 558 (1972). The cardiac lipids were stored in CHCl3 under nitrogen at -20° C. […]
b) Preparation of Cardiac Liposomes
Liposomes were prepared from extracted and purified, native rat heart cardiac lipid and were used as substrate for free-radical attack. Cardiac lipid (in CHCl3) was placed in a glass flask and evaporated to dryness under nitrogen at room temperature; the flask was gently rotated during evaporation to yield a thin, dry lipid film. The lipid was taken up in 10 mM Hepes-0.145M KCl, pH 7.4, and was resuspended by indirect an aerobic sonification for 15 minutes at room temperature. The liposome suspension was used immediately. […]
c) preparation of Fe^3+ -ADP Chelate
A chelate was formed in Hepes-KCl buffer between Fe^3+ (1.0mM FeCl3, final concentration) and ADP (10mM, final concentration) at pH 7.4 with stirring at room temperature. Chelation was allowed to proceed for 90 minutes prior to use. The chelate was prepared fresh for each days experiments to ensure iron solubility, effective chelation, and valence state. […]
d) Thiobarbituric Acid Reaction or Determination of Malondialdehvde Equivalents Malondialdehyde (MDA) equivalents were measured as thiobarbituric acid (TBA)-reactive material by the following modification of published methods. The reaction mixture. prepared fresh daily, contained water: BHT ([…] BHT in absolute ethanol): TBA (1.5% TBA in 0.2M Tris, pH 7.0) in the volume ratio 1:1:5. To each 1.0 ml of peroxidation reaction assayed (see below), 0.35 ml reaction mixture was added. After thorough mixing, the tubes were incubated in an 80° C. shaking water bath for 30 minutes. After this time, the tubes were plunged into an ice water bath, and the reaction was immediately stopped with 0.5 ml ice-cold 91% TCA followed by 2.0 ml CHCl3 After centrifugation for 30 minutes at 2000 rpm in a Sorval HL-8 rotor (4° C.), the absorbance of the washed, pink upper phase was read at 532 nm. A standard curve (0.8-40.0 nmol MDA) was run with every assay. For each curve, MDA was freshly prepared by acidification of 1,1,3,3 -tetraethoxypropane with 75% TCA-2.3N HCl (0.15 ml acid mixture with 1.0 ml suitably diluted tetraethoxypropane). Computer-assisted regression analysis of the standard curve was used to quantify the molar amounts of MDA equivalents in the experimental samples. […]
e) Lipid peroxidation Reaction
Cardiac liposomes were subjected to superoxidedependent. iron-promoted peroxidation in glass vessels to avoid the well-known antioxidant effects of many common polymerizing agents used to fabricate plastic labware. […]

Going from `Cc1c(C)c2c(c(C)c1O)CCC(C)(C#Cc1ccccc1)O2` (racemic) [Example 1, rac-3,4-Dihydro-2,5,7,8-tetramethyl-2-(phenylethynyl)-2H-1-benzopyran-6-ol] to `Cc1c(C)c2c(c(C)c1O)CCC(C)(C#Cc1ccccc1N)O2` (racemic) [Example 40, rac-2-[(2-Aminophenyl)ethynyl]-3,4-dihydro-2,5,7,8-tetramethyl-2H-1-benzopyran-6-ol], the IC50 rises from 650 nM to > 1000 nM. The first is the more potent here.

`COc1ccc(C#CC2(C)CCc3c(C)c(O)c(C)c(C)c3O2)cc1OC(C)=O` (racemic) [Example 20, rac-2-[(3-Acetyloxy-4-methoxyphenyl)ethynyl]-3.4-dihydro-2,5,7,8-tetramethyl-2H-1-benzopyran-6-ol] and `COc1ccc(CCC2(C)CCc3c(C)c(O)c(C)c(C)c3O2)cc1OC(C)=O` (racemic) [Example 60, rac-2-{2-[3-(Acetyloxy)-4-methoxyphenyl]ethyl}-3,4-dihydro-2,5,7,8-tetramethyl-2H-1-benzopyran-6ol] cannot be ordered by IC50: > 1000 nM for the first, > 1000 nM for the second.

`COc1cccc(C#CC2(C)CCc3c(C)c(O)c(C)c(C)c3O2)c1` (racemic) [Example 22, rac-3,4-Dihydro-2-(3-methoxyphenyl)ethynyl)-2,5,7,8-tetra-methyl-2H-1-benzopyran-6-ol] and `Cc1c(C)c2c(c(C)c1O)CCC(C)(C#Cc1ccc(F)c(F)c1)O2` (racemic) [Example 36, rac-2-[(3,4-Difluorophenyl)ethynyl]-3,4-dihydro-2,5,7,8-tetramethyl-2H-1-benzopyran-6-ol] cannot be ordered by IC50: > 1000 nM for the first, > 1000 nM for the second.

First: COC(=O)c1cc(C#CC2(C)CCc3c(C)c(O)c(C)c(C)c3O2)ccc1O (racemic) [Example 23, rac-5-(3,4-Dihydro-6-hydroxy-2,5,7,8-tetramethyl-2H-1-benzopyran-2-yl)ethynyl]-2-hydroxybenzoic acid methyl ester]
Second: COC(=O)c1cc(CCC2(C)CCc3c(C)c(O)c(C)c(C)c3O2)ccc1O (racemic) [Example 63, rac-5-[2-(3,4-Dihydro-6-hydroxy-2,5,7,8-tetramethyl-2H-1-benzopyran-2-yl)ethyl]-2-hydroxybenzoic acid methyl ester]
The IC50 of the first is lower: 900 nM for the first, > 1000 nM for the second. The first is the more potent here.

First: Cc1c(C)c2c(c(C)c1O)CCC(C)(C#Cc1ccc(-c3cccnc3)cc1)O2 (racemic) [Example 24, rac-3,4-Dihydro-2,5,7,8-tetramethyl-2-{[4-(3-pyridinyl)-phenyl]ethynyl}-2H-1-benzopyran-6-ol]
Second: Cc1c(C)c2c(c(C)c1O)CCC(C)(CCc1ccc(-c3cccnc3)cc1)O2 (racemic) [Example 64, rac-3,4-Dihydro-2,5,7,8-tetramethyl-2-{2-[4-(3-pyridinyl)-phenyl]ethyl}-2H-1-benzopyran-6-ol]
The IC50 of the first is lower: 800 nM for the first, > 1000 nM for the second.

First: Cc1c(C)c2c(c(C)c1O)CCC(C)(C#Cc1ccc(-c3ccccn3)s1)O2 (racemic) [Example 26, rac-3,4-Dihydro-2,5,7,8-tetramethyl-2-{[5-(2-pyridinyl)-2-thienyl]ethynyl}-2H-1-benzopyran-6-ol]
Second: Cc1c(C)c2c(c(C)c1O)CCC(C)(CCc1ccc(-c3ccccn3)s1)O2 (racemic) [Example 65, rac-3,4-Dihydro-2,5,7,8-tetramethyl-2-{2-[5-(2-pyridinyl)-2-thienyl]ethyl}-2H-1-benzopyran-6ol]
The IC50 of the first is lower: 550 nM for the first, > 1000 nM for the second.

`COc1cc(C=O)cc(C#CC2(C)CCc3c(C)c(O)c(C)c(C)c3O2)c1O` (racemic) [Example 28, rac-3-[(3,4-Dihydro-6-hydroxy-2,5,7,8-tetramethyl-2H-1-benzopyran-2-yl)ethynyl]-4-hydroxy-5-methoxybenzaldehyde] and `COc1cc(C=NO)cc(C#CC2(C)CCc3c(C)c(O)c(C)c(C)c3O2)c1O` (racemic) [Example 30, rac-3-[(3,4-Dihydro-6-hydroxy-2,5,7,8-tetramethyl-2H-1-benzopyran-2yl)ethynyl]-4-hydroxy-5-methoxybenzaldehydeoxime] cannot be ordered by IC50: > 1000 nM for the first, > 1000 nM for the second.

First: COc1cc(CO)cc(C#CC2(C)CCc3c(C)c(O)c(C)c(C)c3O2)c1O (racemic) [Example 29, rac-3-[(3,4-Dihydro-6-hydroxy-2,5,7,8-tetramethyl-2H-1-benzopyran-2-yl)ethynyl]-4-hydroxy-5-methoxybenzenemethanol]
Second: COc1cc(CO)cc2cc(C3(C)CCc4c(C)c(O)c(C)c(C)c4O3)oc12 (racemic) [Example 55, rac-2-(3,4-Dihydro-6-hydroxy-2,5,7,8-tetramethyl-2H-1-benzopyran-2-yl)-7-methoxybenzofuran-5-methanol]
The IC50 of the first is higher: > 1000 nM for the first, 850 nM for the second.

Going from `Cc1c(C)c2c(c(C)c1O)CCC(C)(C#Cc1cnc3ccccc3c1)O2` (racemic) [Example 33, rac-3,4-Dihydro-2,5,7,8-tetramethyl-2-(3-quinolinylethynyl)-2H-1-benzopyran-6-ol] to `Cc1c(C)c2c(c(C)c1O)CCC(C)(C#Cc1cncc3ccccc13)O2` (racemic) [Example 34, rac-3,4-Dihydro-2-[(4-isoquinolinyl)ethynyl]-2,5,7,8-tetramethyl-2H-1-benzopyran-6-ol], the IC50 rises from 850 nM to > 1000 nM.

Compared with `Cc1c(C)c2c(c(C)c1O)CCC(C)(C#Cc1cccc3ccccc13)O2` (racemic) [Example 39, rac-3,4-Dihydro-2,5,7,8-tetramethyl-2-(1-naphthyl)ethynyl-2H-1-benzopyran-6-ol], `Cc1c(C)c2c(c(C)c1O)CCC(C)(C#Cc1ccccc1O)O2` (racemic) [Example 50 (2-HO-phenyl), rac-3,4-Dihydro-2-[(2-hydroxyphenyl)ethynyl]-2,5,7,8-tetramethyl-2H-1-benzopyran-6-ol] is lower in IC50: > 1000 nM for the first, 700 nM for the second.

`COc1cccc(CCC2(C)CCc3c(C)c(O)c(C)c(C)c3O2)c1` (racemic) [Example 62, rac-3,4-Dihydro-2-[2-(3-methoxyphenyl)ethyl]-2,5,7,8-tetramethyl-2H-1-benzopyran-6-ol] and `CCCCc1ccc(CCC2(C)CCc3c(C)c(O)c(C)c(C)c3O2)s1` (racemic) [Example 66, rac-2-[2-(5-Butyl-2-thienyl)ethyl]-3,4-dihydro-2,5,7,8-tetramethyl-2H-1-benzopyran-6-ol] cannot be ordered by IC50: > 1000 nM for the first, > 1000 nM for the second.

With `Cc1c(C)c2c(c(C)c1O)CCC(C)(C#Cc1ccc3c(c1)N(C)C(=O)CO3)O2` (stereo not drawn) [Example 48] the IC50 was 750 nM.
